Measured values published in PubChem BioAssay (NCI).
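A five-concentration, 48-hour dose response in 96-well plates underlies each endpoint, interpolated linearly between surrounding concentrations. The concentration for 50% growth inhibition is given as GI50. TGI is the concentration that stops growth completely.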

What was measured:
Assay in all cases: NCI tumour cell line growth inhibition, 48 h
[1] = tested on: SW-620 colon
[2] = tested on: UACC-62 melanoma
[3] = tested on: DU-145 prostate
[4] = tested on: UACC-257 melanoma
[5] = tested on: CCRF-CEM leukemia
[6] = tested on: M14 melanoma
[7] = tested on: MCF7 breast
[8] = tested on: HL-60(TB) leukemia
[9] = tested on: SR leukemia
[10] = tested on: KM12 colon
[11] = tested on: HCT-15 colon
[12] = tested on: SF-539 CNS
[13] = tested on: OVCAR-5 ovarian
[14] = tested on: NCI-H460 lung
[15] = tested on: EKVX NSCLC
[16] = tested on: NCI-H23 lung
[17] = tested on: NCI-H522 lung
[18] = tested on: MALME-3M melanoma
[19] = tested on: RXF 393 renal
[20] = tested on: OVCAR-8 ovarian
[21] = tested on: MDA-MB-231 breast
[22] = tested on: SK-OV-3 ovarian
[23] = tested on: A549 NSCLC
[24] = tested on: A498 renal
[25] = tested on: T-47D breast
[26] = tested on: SNB-19 CNS
[27] = tested on: HOP-62 NSCLC
[28] = tested on: TK-10 renal
[29] = tested on: IGROV1 ovarian
[30] = tested on: HS 578T breast
[31] = tested on: BT-549 breast
[32] = tested on: PC-3 prostate
[33] = tested on: UO-31 renal
[34] = tested on: SN12C renal
[35] = tested on: RPMI-8226 leukemia
[36] = tested on: LOX IMVI melanoma
[37] = tested on: NCI-H226 lung
[38] = tested on: HCT-116 colon
[39] = tested on: SF-295 CNS
[40] = tested on: COLO 205 colon
[41] = tested on: OVCAR-3 ovarian
[42] = tested on: NCI/ADR-RES ovarian
[43] = tested on: SK-MEL-5 melanoma
[44] = tested on: SK-MEL-28 melanoma
[45] = tested on: MDA-MB-468 breast
[46] = tested on: SF-268 CNS
[47] = tested on: U251 CNS
[48] = tested on: SNB-75 CNS
[49] = tested on: K-562 leukemia
[50] = tested on: SK-MEL-2 melanoma
[51] = tested on: ACHN renal
[52] = tested on: MOLT-4 leukemia
[53] = tested on: HOP-92 NSCLC
[54] = tested on: MDA-MB-435
[55] = tested on: HCC-2998 colon
[56] = tested on: CAKI-1 renal
[57] = tested on: HT29 colon
[58] = tested on: 786-0 renal
[59] = tested on: OVCAR-4 ovarian

Compound: N#C/C(=C1/C(=O)Nc2ccccc21)c1nnc(NC(=O)c2ccc(-n3c(=O)[nH]c4ccccc4c3=O)cc2)s1
- GI50 [1]: 29.5 µM
- TGI [1]: > 100 µM
- GI50 [2]: 47.4 µM
- TGI [2]: > 100 µM
- GI50 [3]: 53.6 µM
- TGI [3]: > 100 µM
- GI50 [4]: 46.2 µM
- TGI [4]: > 100 µM
- GI50 [5]: 22.2 µM
- TGI [5]: 64.5 µM
- GI50 [6]: 41.2 µM
- TGI [6]: > 100 µM
- GI50 [7]: 18.3 µM
- TGI [7]: > 100 µM
- GI50 [8]: 13.6 µM
- TGI [8]: 45.4 µM
- GI50 [9]: 33.1 µM
- TGI [9]: > 100 µM
- GI50 [10]: 33.4 µM
- TGI [10]: > 100 µM
- GI50 [11]: 27.3 µM
- TGI [11]: > 100 µM
- GI50 [12]: 48.3 µM
- TGI [12]: > 100 µM
- GI50 [13]: > 100 µM
- TGI [13]: > 100 µM
- GI50 [14]: 26 µM
- TGI [14]: > 100 µM
- GI50 [15]: 46.1 µM
- TGI [15]: > 100 µM
- GI50 [16]: 45.2 µM
- TGI [16]: > 100 µM
- GI50 [17]: 13.2 µM
- TGI [17]: 71.7 µM
- GI50 [18]: 45.6 µM
- TGI [18]: > 100 µM
- GI50 [19]: 14.5 µM
- TGI [19]: > 100 µM
- GI50 [20]: 67.6 µM
- TGI [20]: > 100 µM
- GI50 [21]: 38.4 µM
- TGI [21]: > 100 µM
- GI50 [22]: > 100 µM
- TGI [22]: > 100 µM
- GI50 [23]: 54.7 µM
- TGI [23]: > 100 µM
- GI50 [24]: > 100 µM
- TGI [24]: > 100 µM
- GI50 [25]: 11.2 µM
- TGI [25]: > 100 µM
- GI50 [26]: > 100 µM
- TGI [26]: > 100 µM
- GI50 [27]: > 100 µM
- TGI [27]: > 100 µM
- GI50 [28]: > 100 µM
- TGI [28]: > 100 µM
- GI50 [29]: 40.5 µM
- TGI [29]: > 100 µM
- GI50 [30]: 27.4 µM
- TGI [30]: > 100 µM
- GI50 [31]: 39.4 µM
- TGI [31]: > 100 µM
- GI50 [32]: 30.3 µM
- TGI [32]: > 100 µM
- GI50 [33]: 31.8 µM
- TGI [33]: > 100 µM
- GI50 [34]: 58.3 µM
- TGI [34]: > 100 µM
- GI50 [35]: 27.1 µM
- TGI [35]: > 100 µM
- GI50 [36]: 21.6 µM
- TGI [36]: > 100 µM
- GI50 [37]: 17.6 µM
- TGI [37]: > 100 µM
- GI50 [38]: 32.6 µM
- TGI [38]: > 100 µM
- GI50 [39]: 45.9 µM
- TGI [39]: > 100 µM
- GI50 [40]: 22.1 µM
- TGI [40]: 79.8 µM
- GI50 [41]: 10.9 µM
- TGI [41]: 71.6 µM
- GI50 [42]: 33.8 µM
- TGI [42]: > 100 µM
- GI50 [43]: 32.2 µM
- TGI [43]: > 100 µM
- GI50 [44]: 65.9 µM
- TGI [44]: > 100 µM
- GI50 [45]: 11 µM
- TGI [45]: 56.1 µM
- GI50 [46]: 34.9 µM
- TGI [46]: > 100 µM
- GI50 [47]: > 100 µM
- TGI [47]: > 100 µM
- GI50 [48]: 16.2 µM
- TGI [48]: > 100 µM
- GI50 [49]: 26.1 µM
- TGI [49]: > 100 µM
- GI50 [50]: > 100 µM
- TGI [50]: > 100 µM
- GI50 [51]: 53.8 µM
- TGI [51]: > 100 µM
- GI50 [52]: 20.7 µM
- TGI [52]: 60.9 µM
- GI50 [53]: 33.8 µM
- TGI [53]: > 100 µM
- GI50 [54]: 17.2 µM
- TGI [54]: 35.8 µM
- GI50 [55]: 39.8 µM
- TGI [55]: > 100 µM
- GI50 [56]: 39 µM
- TGI [56]: > 100 µM
- GI50 [57]: 31.7 µM
- TGI [57]: > 100 µM
- GI50 [58]: > 100 µM
- TGI [58]: > 100 µM
- GI50 [59]: 23.1 µM
- TGI [59]: > 100 µM

Compound: CCCn1cc(-c2nc(Nc3ccc(C(=O)NCCCCNc4cccc5c4C(=O)N(C4CCC(=O)NC4=O)C5=O)cc3)nc3[nH]ccc23)cn1 (stereo not drawn)
- GI50 [1]: < 0.01 µM
- TGI [1]: > 100 µM
- GI50 [2]: > 100 µM
- TGI [2]: > 100 µM
- GI50 [3]: > 100 µM
- TGI [3]: > 100 µM
- GI50 [4]: > 100 µM
- TGI [4]: > 100 µM
- GI50 [5]: < 0.01 µM
- TGI [5]: < 0.01 µM
- GI50 [6]: 0.0817 µM
- TGI [6]: > 100 µM
- GI50 [7]: 0.0339 µM
- TGI [7]: > 100 µM
- GI50 [8]: < 0.01 µM
- TGI [8]: 0.516 µM
- GI50 [9]: 0.319 µM
- TGI [9]: > 100 µM
- GI50 [10]: 0.0374 µM
- TGI [10]: > 100 µM
- GI50 [12]: 0.0676 µM
- TGI [12]: > 100 µM
- GI50 [13]: 0.243 µM
- TGI [13]: > 100 µM
- GI50 [14]: > 100 µM
- TGI [14]: > 100 µM
- TGI [15]: > 100 µM
- GI50 [16]: 18.6 µM
- TGI [16]: > 100 µM
- GI50 [17]: > 100 µM
- TGI [17]: > 100 µM
- GI50 [18]: < 0.01 µM
- TGI [18]: < 0.01 µM
- GI50 [20]: < 0.01 µM
- TGI [20]: > 100 µM
- GI50 [21]: < 0.01 µM
- TGI [21]: < 0.01 µM
- GI50 [22]: 0.425 µM
- TGI [22]: > 100 µM
- GI50 [23]: 0.119 µM
- TGI [23]: > 100 µM
- GI50 [24]: 0.157 µM
- TGI [24]: > 100 µM
- GI50 [26]: < 0.0124 µM
- TGI [26]: > 100 µM
- GI50 [29]: 0.0117 µM
- TGI [29]: > 100 µM
- GI50 [30]: < 0.01 µM
- TGI [30]: > 100 µM
- GI50 [31]: < 0.01 µM
- TGI [31]: < 0.01 µM
- GI50 [34]: 0.0166 µM
- TGI [34]: > 100 µM
- GI50 [35]: 0.157 µM
- TGI [35]: > 100 µM
- GI50 [36]: > 100 µM
- TGI [36]: > 100 µM
- GI50 [37]: 0.0319 µM
- TGI [37]: > 100 µM
- GI50 [38]: 27.4 µM
- TGI [38]: > 100 µM
- GI50 [39]: 0.209 µM
- TGI [39]: > 100 µM
- GI50 [41]: 0.424 µM
- TGI [41]: > 100 µM
- GI50 [42]: > 100 µM
- TGI [42]: > 100 µM
- GI50 [43]: 0.03 µM
- TGI [43]: 0.188 µM
- GI50 [44]: 0.123 µM
- TGI [44]: > 100 µM
- GI50 [45]: < 0.01 µM
- TGI [45]: < 0.01 µM
- GI50 [46]: 0.0257 µM
- TGI [46]: > 100 µM
- GI50 [47]: 0.589 µM
- TGI [47]: > 100 µM
- GI50 [48]: < 0.01 µM
- TGI [48]: 2.06 µM
- GI50 [49]: 0.0368 µM
- TGI [49]: > 100 µM
- GI50 [50]: 0.0536 µM
- TGI [50]: > 100 µM
- GI50 [51]: > 100 µM
- TGI [51]: > 100 µM
- GI50 [52]: < 0.01 µM
- GI50 [53]: < 0.01 µM
- TGI [53]: < 0.01 µM
- GI50 [54]: 0.0686 µM
- TGI [54]: > 100 µM
- GI50 [55]: < 0.01 µM
- TGI [55]: > 100 µM
- GI50 [56]: 0.19 µM
- TGI [56]: > 100 µM
- GI50 [57]: 0.166 µM
- TGI [57]: > 100 µM
- GI50 [58]: 0.136 µM
- TGI [58]: > 100 µM
- GI50 [59]: 0.0354 µM
- TGI [59]: > 100 µM
